Key:
Carbonic anhydrase 1 [1] = target: T1, Carbonic anhydrase 1 (Homo sapiens, UniProt P00915); test: Inhibition of human recombinant carbonic anhydrase 1 preincubated for 15 mins at room temperature/6 hrs at 4 deg C by stopped-flow CO2 hydration assay
Carbonic anhydrase 2 [2] = target: T2, Carbonic anhydrase 2 (Homo sapiens, UniProt P00918); test: Inhibition of human recombinant carbonic anhydrase 2 preincubated for 15 mins at room temperature/6 hrs at 4 deg C by stopped-flow CO2 hydration assay
Carbonic anhydrase 4 [3] = target: T3, Carbonic anhydrase 4 (Homo sapiens, UniProt P22748); test: Inhibition of human recombinant carbonic anhydrase 4 preincubated for 15 mins at room temperature/6 hrs at 4 deg C by stopped-flow CO2 hydration assay
T3 sequence (P22748 whole entry): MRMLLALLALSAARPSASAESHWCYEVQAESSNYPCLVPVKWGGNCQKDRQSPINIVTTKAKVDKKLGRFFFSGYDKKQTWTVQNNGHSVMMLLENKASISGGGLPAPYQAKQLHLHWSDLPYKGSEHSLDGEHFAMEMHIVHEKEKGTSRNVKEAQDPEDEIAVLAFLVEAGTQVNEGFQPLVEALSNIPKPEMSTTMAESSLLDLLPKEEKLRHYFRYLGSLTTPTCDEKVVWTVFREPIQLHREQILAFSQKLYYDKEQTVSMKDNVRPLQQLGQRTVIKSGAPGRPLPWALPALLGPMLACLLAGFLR

Carbonic anhydrase 7 = Carbonic anhydrase 7 (Homo sapiens, UniProt P43166); test: Inhibition of human recombinant carbonic anhydrase 7 preincubated for 15 mins at room temperature/6 hrs at 4 deg C by stopped-flow CO2 hydration assay
Sequence of Carbonic anhydrase 7 (P43166 whole entry): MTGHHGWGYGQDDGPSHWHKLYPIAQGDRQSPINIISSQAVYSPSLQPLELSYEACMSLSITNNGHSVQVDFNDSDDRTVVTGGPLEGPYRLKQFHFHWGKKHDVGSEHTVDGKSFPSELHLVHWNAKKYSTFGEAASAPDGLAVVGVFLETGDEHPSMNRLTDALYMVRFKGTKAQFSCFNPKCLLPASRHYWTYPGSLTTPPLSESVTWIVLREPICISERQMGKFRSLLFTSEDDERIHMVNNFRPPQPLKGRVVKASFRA

Carbonic anhydrase 12 [4] = target: T4, Carbonic anhydrase 12 (Homo sapiens, UniProt O43570); test: Inhibition of human recombinant carbonic anhydrase 12 preincubated for 15 mins at room temperature/6 hrs at 4 deg C by stopped-flow CO2 hydration assay
T4 sequence (O43570 whole entry): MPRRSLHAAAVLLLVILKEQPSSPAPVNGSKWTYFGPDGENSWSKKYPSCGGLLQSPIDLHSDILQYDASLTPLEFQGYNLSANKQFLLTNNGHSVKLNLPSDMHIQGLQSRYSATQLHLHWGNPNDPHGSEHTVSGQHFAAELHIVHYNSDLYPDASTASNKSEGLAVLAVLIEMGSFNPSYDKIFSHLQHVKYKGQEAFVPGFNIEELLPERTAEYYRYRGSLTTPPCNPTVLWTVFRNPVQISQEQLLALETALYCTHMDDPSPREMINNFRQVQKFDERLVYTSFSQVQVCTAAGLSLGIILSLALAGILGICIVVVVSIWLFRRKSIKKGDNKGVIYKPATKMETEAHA

Carbonic anhydrase 1 [5] = target: T1, Carbonic anhydrase 1; test: Inhibition of human recombinant carbonic anhydrase 1
Carbonic anhydrase 2 [6] = target: T2, Carbonic anhydrase 2; test: Inhibition of human recombinant carbonic anhydrase 2
Carbonic anhydrase 12 [7] = target: T4, Carbonic anhydrase 12; test: Inhibition of human recombinant carbonic anhydrase 12
Carbonic anhydrase 4 [8] = target: T3, Carbonic anhydrase 4; test: Inhibition of human recombinant carbonic anhydrase 4

T1 sequence (P00915 whole entry): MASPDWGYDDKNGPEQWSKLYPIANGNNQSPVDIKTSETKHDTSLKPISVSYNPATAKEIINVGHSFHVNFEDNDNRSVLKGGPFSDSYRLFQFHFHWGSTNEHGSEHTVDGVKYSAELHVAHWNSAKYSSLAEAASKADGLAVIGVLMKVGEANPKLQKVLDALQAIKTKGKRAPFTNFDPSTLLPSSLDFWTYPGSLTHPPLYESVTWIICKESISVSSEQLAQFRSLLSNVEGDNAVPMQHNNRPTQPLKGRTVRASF

Structure (SMILES)	Ki (Carbonic anhydrase 1 [1]) [nM]	Ki (Carbonic anhydrase 2 [2]) [nM]	Ki (Carbonic anhydrase 4 [3]) [nM]	Ki (Carbonic anhydrase 7) [nM]	Ki (Carbonic anhydrase 12 [4]) [nM]	Ki (Carbonic anhydrase 1 [5]) [nM]	Ki (Carbonic anhydrase 2 [6]) [nM]	Ki (Carbonic anhydrase 12 [7]) [nM]	Ki (Carbonic anhydrase 4 [8]) [nM]
O=C1c2c(O)cc(O)cc2O[C@H](c2ccc(O)c(O)c2)[C@H]1O [(+)-TAXIFOLIN]	> 10000								
COc1ccc(-c2coc3cc(O)cc(O)c3c2=O)cc1 [BIOCHANIN]	> 10000	> 10000	7080	372	52.5				
O=c1cc(-c2ccccc2)oc2cc(O)cc(O)c12 [CHRYSIN]	> 10000	> 10000	538	171	34.7				
O=c1c(-c2ccc(O)cc2)coc2cc(O)ccc12 [DAIDZEIN]	> 10000	> 10000	719	4.2	56.4				
O=C1C[C@@H](c2ccc(O)c(O)c2)Oc2cc(O)cc(O)c21 [ERIODICTYOL]	> 10000	> 10000	72.8	4.3	31.1				
COc1ccc([C@@H]2CC(=O)c3c(O)cc(O)cc3O2)cc1O [HESPERETIN]	> 10000	> 10000	102	3.3	454				
COc1cc(-c2oc3cc(O)cc(O)c3c(=O)c2O)ccc1O [ISORHAMNETIN]	> 10000	> 10000	213	4.4	54.9	> 10000	440	220	
O=c1c(O)c(-c2ccc(O)cc2)oc2cc(O)cc(O)c12 [KAEMPFEROL]	> 10000	9530	> 10000	25	146				
O=C(/C=C/c1ccc(O)c2c1[C@H](C(=O)O)[C@@H](c1ccc(O)c(O)c1)O2)O[C@H](Cc1ccc(O)c(O)c1)C(=O)O [LITHOSPERMIC ACID]	> 10000	> 10000	101	268					
O=c1cc(-c2ccc(O)c(O)c2)oc2cc(O)cc(O)c12 [LUTEOLIN]	> 10000	3690		4.7	60.3				293
O=C1C[C@@H](c2ccc(O)cc2)Oc2cc(O)cc(O)c21 [NARINGENIN]	> 10000	> 10000	79.5	4.3	44.3				
O=c1c(-c2ccc(O)cc2)coc2c([C@@H]3O[C@H](CO)[C@@H](O)[C@H](O)[C@H]3O)c(O)ccc12 [PUERARIN]	> 10000	> 10000	> 10000	453					
C[C@@H]1O[C@@H](Oc2c(-c3ccc(O)c(O)c3)oc3cc(O)cc(O)c3c2=O)[C@H](O)[C@H](O)[C@H]1O [QUERCETIN-3-O-RHAMNOSIDE]	> 10000	6370	67.3	3.9	43.5				

Now from value to compound, other results behind:

Ki (Carbonic anhydrase 1 [1]) [nM]	Ki (Carbonic anhydrase 2 [2]) [nM]	Ki (Carbonic anhydrase 4 [3]) [nM]	Ki (Carbonic anhydrase 7) [nM]	Ki (Carbonic anhydrase 12 [4]) [nM]	Structure (SMILES)	Ki (Carbonic anhydrase 1 [5]) [nM]	Ki (Carbonic anhydrase 2 [6]) [nM]	Ki (Carbonic anhydrase 12 [7]) [nM]	Ki (Carbonic anhydrase 4 [8]) [nM]
> 10000	8790	344	4.7	409	O=C(/C=C/c1ccc(O)cc1)OC[C@H]1O[C@@H](Oc2c(-c3ccc(O)cc3)oc3cc(O)cc(O)c3c2=O)[C@H](OC(=O)/C=C/c2ccc(O)cc2)[C@@H](O)[C@@H]1O				
> 10000	6860	62.2	26.6	400	CC(=O)O[C@@H]1[C@@H](OC(=O)/C=C/c2ccc(O)cc2)[C@H](Oc2c(-c3ccc(O)cc3)oc3cc(O)cc(O)c3c2=O)O[C@H](COC(=O)/C=C/c2ccc(O)cc2)[C@H]1OC(C)=O				
> 10000	168	5590	424	4.9	O=c1c(O[C@@H]2O[C@H](CO)[C@@H](O)[C@H](O)[C@H]2O)c(-c2ccc(O)cc2)oc2cc(O)cc(O)c12 [ASTRAGALIN]				
> 10000	> 10000	568	24.5	41.8	O=c1c(O)c(-c2ccccc2)oc2cc(O)cc(O)c12 [GALANGIN]				
> 10000	6210	75.7	3.8	52.1	O=c1c(O[C@@H]2O[C@H](CO)[C@@H](O)[C@H](O)[C@H]2O)c(-c2ccc(O)c(O)c2)oc2cc(O)cc(O)c12 [ISOQUERCETIN]	> 10000	410	170	
> 10000	9590	66.6	71.4	39.8	O=C(/C=C/c1ccc(O)c(O)c1/C=C/c1ccc(O)c(O)c1)O[C@H](Cc1ccc(O)c(O)c1)C(=O)O [SALVIANOLIC ACID A]				
> 10000	> 10000	5470	4.6	134	O=C(/C=C/c1ccc(O)cc1)OC[C@H]1O[C@@H](Oc2c(-c3ccc(O)cc3)oc3cc(O)cc(O)c3c2=O)[C@H](O)[C@@H](O)[C@@H]1O [TILIROSIDE]				

Source: ChEMBL document CHEMBL3627624, “New natural product carbonic anhydrase inhibitors incorporating phenol moieties” (Bioorg Med Chem, 2015)
